Values belong to the compound of their own block, whether it stands above or below them.
Molecular target: T1, USP30 (Homo sapiens, UniProt Q70CQ3)
T1 construct: We next determined cellular engagement of endogenous USP30 with IMP-2587 or IMP-2586; endogenous in cells; host or cells: HEK293T
T1 sequence (Q70CQ3 1-517): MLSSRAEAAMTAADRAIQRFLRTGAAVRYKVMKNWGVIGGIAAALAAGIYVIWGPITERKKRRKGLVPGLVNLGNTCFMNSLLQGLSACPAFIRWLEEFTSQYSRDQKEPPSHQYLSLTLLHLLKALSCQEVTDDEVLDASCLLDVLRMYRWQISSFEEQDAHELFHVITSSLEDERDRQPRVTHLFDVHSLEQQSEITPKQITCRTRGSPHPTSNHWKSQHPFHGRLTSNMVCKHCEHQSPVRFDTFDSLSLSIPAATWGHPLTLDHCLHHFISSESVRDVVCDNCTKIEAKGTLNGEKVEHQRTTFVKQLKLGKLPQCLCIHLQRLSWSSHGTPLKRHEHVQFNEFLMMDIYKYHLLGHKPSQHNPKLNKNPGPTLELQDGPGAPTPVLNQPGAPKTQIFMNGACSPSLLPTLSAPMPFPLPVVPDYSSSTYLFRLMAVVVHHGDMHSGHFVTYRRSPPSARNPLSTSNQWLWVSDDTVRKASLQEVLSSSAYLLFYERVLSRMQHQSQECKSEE
Test: ABPP chemical proteomics (LC-MS/MS) in HEK293T cells
Assay type: cell-based
Conditions: for probe concentration for detection of USP30 activity in intact cells: 10 min incubation; for Difference (log2 fold change of enrichment): USP30
Procedure: To explore the selectivity of IMP-2587 and IMP-2586 across the whole proteome, we performed quantitative activity-based protein profiling (ABPP) in HEK293T cells following treatment with IMP-2587 or IMP-2586 (Fig. 3a). After ABP incubation, cells were lysed, and probe-labelled proteins were ligated to biotinylated capture reagents.[27] […] USP30 was outcompeted by corresponding parent inhibitors for each ABP (Fig. 5b and d and Tables S3 and S5, ESI ^†), confirming the high potency and rapid engagement of IMP-2587 and IMP-2586 in cells. […] DESI1 and DESI2 are small ubiquitin-related modifier (SUMO) proteases,[3,29–32] and IMP-2587 and IMP-2586 may offer a starting point for future development of DESI ABPs. […]
d) Live cell probe incubation, lysate click chemistry and precipitation 6-well HEK293T cells were incubated with media containing compounds ABP 2 and ABP 4 at indicated concentrations for 1 h at 37 °C. The cells were washed with PBS and lysed with lysis buffer (50 μL (1% (v/v) Triton X-100, 0.1% (w/v) sodium dodecyl sulfate (SDS), EDTA-free complete protease inhibitor cocktail (1×, Roche) in PBS on ice for 10 min. The lysates were scraped and transferred to corresponding Lo-Bind Eppendorfs. Each lysate was sonicated for 1 minute, and the samples centrifuges at 5,000 x g at 4 °C for 5 minutes to pellet insoluble cellular debris. The supernatant was collected, and protein concentration was determined using the DC Protein Assay (Bio-Rad) as per manufacturer’s instructions, and normalised to lowest concentrated sample (e.g. 1 mg/mL, using lysis buffer). The following “click mixture” was prepared separately, preparing 6 μL for every 100 μL of […]
Capture reagent (AzRB/AzT for ABP 2, YnT/YnB for ABP 4 10 mM in DMSO, 1 vol; final concentration […]
CuSO4 (50 mM in water, 2 vol; final concentration in reaction 1 mM)
TCEP (50 mM in water, 2 vol; final concentration in reaction 1 mM)
TBTA (10 mM in DMSO, 1 vol; final concentration in reaction 100 µM)
The click mixture was vortexed and incubated at room temperature for 2 min before 6 μL of the mixture was added to every 100 μL of lysate. The reaction mixtures were shaken at room temperature for 1 h before being quenched with EDTA (500 mM in H2O) to a final concentration of 10 mM.
Proteins were precipitated by adding H2O (1 vol), MeOH (2 vol) and CHCl3 (0.5 vol), vortexing briefly then centrifuging at 17,000 × g for 5 min. The top H2O/MeOH layer was discarded and the middle layer of protein pellet and lower CHCl3 layer retained. The suspension was washed with MeOH (300 μL), and sonicated to break up the pellet. The proteins were pelleted by centrifugation at 10,000–17000 × g for 5–10 min or until a compact pellet was formed. The protein pellet was washed once more with MeOH (1 mL). The pellet was resuspended by sonicating and completely dissolving in 1% (w/v) SDS in PBS (to 5 mg/mL protein) before being made up to 1 mg/mL protein with PBS. […]
f) Neutravidin biotin enrichment (Affinity pull-down)
Click chemistry and precipitation steps were carried out as described in section 3.2.d, on at least 400ug of protein per sample. The pellet was resuspended by sonicating and completely dissolving in 1% (w/v) SDS in HEPES 50 mM pH 8.0, before being made up to 1 mg/mL protein with HEPES 50 mM pH 8.0 to […]
achieve a final concentration of 0.2% SDS. 20uL of each samples was collected as TL (Total lysate) samples. Pull down of biotinylated proteins was achieved by incubating samples with pre-equilibrated (3x 1 mL washes with 0.2% (w/v) SDS in HEPES 50 mM pH 8 buffer) Pierce™ NeutrAvidin™ Agarose beads for 3 hours at room temperature. NeutrAvidin™ Agarose beads were used in ratio of 1 μL bead resin per 10ug of protein sample. The beads were subsequently washed by moderate shaking for 10 seconds then briefly pelleting by table-top centrifuge then vacuum aspirating the supernatant with fine-end pipette tips (to not disturb the agarose) after collecting 20 µL supernatant as SN (supernatant […]
) samples. […]

SMILES: C#Cc1cccc(-c2cc(NC(=O)CC3CCN(C#N)C3)on2)c1 (centres unmarked) [IMP-2587]
probe concentration for detection of USP30 activity in intact cells: 30 nM

Difference (log2 fold change of enrichment) (compound 1 out-competition with IMP-2587 labelling, HEK293T (Table S3, Fig.5b)): -1.82
SMILES: N#CN1CC[C@H](CC(=O)Nc2cc(-c3cccc(Cl)c3)no2)C1 [compound 1, reference compound]

SMILES: N#CN1CC[C@@H](NC(=O)c2cc(-c3ccccc3Oc3ccc(N=[N+]=[N-])cc3)n[nH]2)C1 [IMP-2586]
probe concentration for detection of USP30 activity in intact cells: 30 nM
Difference (log2 fold change of enrichment) (IMP-2586 labelling vs DMSO, 30 nM, 10 min, HEK293T (Table S4, Fig.5c)): 4.80

Difference (log2 fold change of enrichment) (compound 3 out-competition with IMP-2586 labelling, HEK293T (Table S5, Fig.5d)): -4.18
SMILES: N#CN1CC[C@@H](NC(=O)c2cc(-c3ccccc3Oc3ccccc3)n[nH]2)C1 [compound 3, reference compound]
